Data reported in patent US8557764B2, “Methods of modulating immune function” (The Regents of the University of Colorado, a body corporate, priority 2007, dated 2013).
No end group written: not given here. *: point of attachment. Biotin = O=C1N[C@H]2[C@H](CS[C@H]2CCCCC(=O)*)N1

Columns and labels:
[1] = tested on: cell surface CD74 on Raji or Daudi cells; assay: MKN1 (bioCLIP) effect on cell surface CD74 levels (flow cytometry); format: cell-based, human; conditions: 24 and 48 hours
Procedure: (§1) The ability of MKN1 (bioCLIP) to alter cell surface CLIP and CD74 levels was determined using Raji or Daudi cells.
(§2) Data were analyzed by histogram with Y axis represents cell number of the 5000 live cells versus the X axis which is a reflection of relative FITC fluorescence with either antibodies to CLIP or CD74. The distance between the histogram from the isotype control staining versus the histogram reflecting the specific stain and is a measure of level of cell surface CLIP or CD74 when staining a population of live Raji or Daudi cells.
(§3) Cell Culture Conditions: The Raji and Daudi cell lines were purchased from American Type Culture Collection, were thawed, and grown in RPMI 1640 medium supplemented with standard supplements, including 10% fetal calf serum, gentamycin, penicillin, streptomycin, sodium pyruvate, HEPES buffer, 1-glutamine, and 2-ME.
(§4) Protocol: Cells were plated into a 12 well plate with 3 mls total volume containing approximately 0.5×10^6/mL for Daudi cells and 0.5×10^6/mL for Raji cells. […]
(§5) Harvested cells were stained using standard staining procedure that called for a 1:100 dilution of Fitc-anti-human CLIP or CD74 antibody (Fitc, Pharmingen, Cat #554647) or isotype control. […] Samples were acquired and analyzed on a Coulter Excel Flow Cytometer.

[2] = tested on: cell surface CLIP on Raji or Daudi cells; assay: MKN1 (bioCLIP) effect on cell surface CLIP levels (flow cytometry); format: cell-based, human; conditions: 24 and 48 hours
Procedure: as §1, §2, §3, §4, §5

[3] = tested on: human B cell lines, Raji and Daudi; assay: Binding of biotinylated synthetic peptide to B cell lines (Streptavidin-PE flow cytometry); format: cell-based; conditions: 50 microMolar
Procedure: (§6) The ability of synthetic peptides to compete with binding of CLIP peptides and result in the cell surface expression of CD1d was determined.
(§7) Results: The results shown in FIG. 5 are expressed in histogram analyses. The Y axis represents cell number of the 5000 live cells versus the X axis which is a reflection of relative Fitc fluorescence versus Streptavidin-PE (eBioscience, Cat. #12-4317) that will bind with high affinity to cell-bound biotinylated peptides. The distance between the histogram from the isotype control staining versus the histogram reflecting the specific stain and is a measure of level of cell surface CD1d.
as §3
(§8) Protocol: Cells were plated into a 12 well plate with 3 mls total volume containing approximately 1.5×10^6/well for Daudi cells and 3.0×10^6/well for Raji cells. Treatment groups included no treatment as control and biotinylated […] […]
(§9) Harvested cells were stained using standard staining procedure that called for a 1:100 dilution of PE anti-CD1d. […] Samples were acquired and analyzed on a Coulter Excel Flow Cytometer.

[4] = tested on: cell surface CD1d on Raji and Daudi cells; assay: Cell surface expression of CD1d after competing peptide treatment (flow cytometry); format: cell-based, human; conditions: 50 microMolar, both cell lines
Procedure: as §6, §7, §3, §8, §9

[5] = relative to cyclosporin; cited from earlier work

## MKN1: 19 mer, Biotin at N-Terminal = Biotinylated CLIP; SGG GSK MRM ATP LLM QAL Y (SEQ ID NO. 5) (Biotin-SGGGSKMRMATPLLMQALY)
[1]
  cell surface CD74 levels: alters
[2]
  cell surface CLIP levels: alters

## Biotinylated FRIMAVLAS: biotinylated synthetic peptide FRIMAVLAS (SEQ ID NO. 2), also referred to as MKN 5 (also: biotinylated)
[3]; 4 hours, Raji and Daudi
  binding of biotinylated peptide to the cell lines: bound with high affinity
[3]; 24 hours
  binding of biotinylated peptide to the cell lines: Less binding
[4]; 4 hours
  cell surface expression of CD1d: marginally
[4]; 24 hours
  cell surface expression of CD1d: slightly more

## C=CC[C@@H]1/C=C(\C)C[C@H](C)C[C@H](OC)[C@H]2O[C@@](O)(C(=O)C(=O)N3CCCC[C@H]3C(=O)O[C@H](/C(C)=C/[C@@H]3CC[C@@H](O)[C@H](OC)C3)[C@H](C)[C@@H](O)CC1=O)[C@H](C)C[C@@H]2OC [FK506, tacrolimus]
[5]
  immunosuppressive activity greater than cyclosporin: 10-100 times
